28 compounds from patent US9505767B2, “Pyrazolo[1,5-A]pyrimidin-7(4H)-onehistone demethylase inhibitors” (Genentech, Inc., priority 2013, dated 2016) can be followed below.

pIC50: −log10 of the molar value.

T1 sequence (P29375 whole entry): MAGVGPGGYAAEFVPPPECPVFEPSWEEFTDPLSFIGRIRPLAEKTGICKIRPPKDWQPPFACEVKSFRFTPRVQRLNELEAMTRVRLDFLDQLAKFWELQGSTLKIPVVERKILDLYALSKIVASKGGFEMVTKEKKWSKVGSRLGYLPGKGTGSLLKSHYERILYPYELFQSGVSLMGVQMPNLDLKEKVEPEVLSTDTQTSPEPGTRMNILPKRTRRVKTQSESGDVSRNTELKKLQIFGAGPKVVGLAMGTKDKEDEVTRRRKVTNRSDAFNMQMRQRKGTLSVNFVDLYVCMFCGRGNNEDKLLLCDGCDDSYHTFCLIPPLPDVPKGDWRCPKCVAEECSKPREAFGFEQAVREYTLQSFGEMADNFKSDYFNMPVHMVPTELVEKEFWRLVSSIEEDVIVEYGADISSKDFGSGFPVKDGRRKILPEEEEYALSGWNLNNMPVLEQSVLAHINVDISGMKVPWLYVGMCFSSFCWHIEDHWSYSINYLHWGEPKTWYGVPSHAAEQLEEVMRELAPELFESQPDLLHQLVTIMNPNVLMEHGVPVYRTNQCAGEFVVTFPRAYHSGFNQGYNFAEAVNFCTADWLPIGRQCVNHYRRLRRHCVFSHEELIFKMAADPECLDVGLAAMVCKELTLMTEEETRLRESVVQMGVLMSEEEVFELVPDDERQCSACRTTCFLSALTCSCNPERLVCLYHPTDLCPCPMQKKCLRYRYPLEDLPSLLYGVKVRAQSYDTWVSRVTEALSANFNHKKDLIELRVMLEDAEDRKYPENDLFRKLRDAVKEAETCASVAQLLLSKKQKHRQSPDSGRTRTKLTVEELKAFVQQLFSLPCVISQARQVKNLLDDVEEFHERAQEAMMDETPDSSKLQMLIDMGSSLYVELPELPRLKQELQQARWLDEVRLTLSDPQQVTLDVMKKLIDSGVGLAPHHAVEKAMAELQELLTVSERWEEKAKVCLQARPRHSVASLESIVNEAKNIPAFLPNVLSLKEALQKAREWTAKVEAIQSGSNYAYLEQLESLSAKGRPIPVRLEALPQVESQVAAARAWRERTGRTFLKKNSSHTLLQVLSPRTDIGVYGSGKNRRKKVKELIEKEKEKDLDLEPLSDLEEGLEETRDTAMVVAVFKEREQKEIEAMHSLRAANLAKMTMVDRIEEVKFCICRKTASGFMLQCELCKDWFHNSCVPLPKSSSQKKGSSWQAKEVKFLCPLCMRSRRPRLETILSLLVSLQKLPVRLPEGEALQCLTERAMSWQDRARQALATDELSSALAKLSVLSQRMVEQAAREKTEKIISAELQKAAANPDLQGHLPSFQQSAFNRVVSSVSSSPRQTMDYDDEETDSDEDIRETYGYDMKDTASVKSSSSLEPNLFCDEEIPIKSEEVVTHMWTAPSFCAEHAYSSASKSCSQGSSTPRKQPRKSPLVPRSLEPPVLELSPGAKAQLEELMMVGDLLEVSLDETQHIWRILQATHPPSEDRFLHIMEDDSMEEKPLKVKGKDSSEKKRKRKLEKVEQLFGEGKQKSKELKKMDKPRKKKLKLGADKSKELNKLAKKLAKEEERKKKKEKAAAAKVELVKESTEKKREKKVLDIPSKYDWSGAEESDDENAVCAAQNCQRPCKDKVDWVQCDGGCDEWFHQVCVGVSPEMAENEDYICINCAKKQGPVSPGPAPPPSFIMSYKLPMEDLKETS

The first experiment concerns the target T1, KDM5A (Homo sapiens, UniProt P29375).
T1 construct: Full length recombinant Flag tagged KDM5A protein was purified from Sf9 insect cells; Flag; made in house; host or cells: Sf9 insect cells
In words: KDM5A Demethylase Assay (MassSpec Assay-A). The class given is biochemical. Conditions: full length recombinant Flag tagged KDM5A, 20 nM; MassSpec readout; biotinylated H3K9me1 peptide 4.0 μM; read-out: A KDM5A MS (IC50). How it is done: Full length recombinant Flag tagged KDM5A protein was purified from […] insect cells. The demethylation reaction buffer contained 50 mM TrisCl pH 7.4, 0.01% Triton X-100, 0.025 mg/mL BSA, 1 mM ascorbate (Cat# A4034, Sigma Aldrich), 2 mM TCEP (Cat# D9779, Sigma Aldrich), 2.0 μM α-ketoglutarate (# K2010, Sigma Aldrich) and 50 μM Fe2(NH4)2(SO4)2 (Cat# F1543, Sigma Aldrich). In a 25 μL demethylation reaction system, 20 nM recombinant KDM5A and was incubated with compounds for 10 minutes in the above buffer, and then […] (# K2010, Sigma Aldrich), 4.0 μM biotinylated H3K9me1 peptide (1-21 aa), and Fe2(NH4)2(SO4)2 were added to initiate the reaction. (All reagent concentrations are final reagent concentrations.) Reactions were incubated for 30 minutes at room temperature, and then quenched by addition of an equal volume of 1% formic acid. After termination, plates were sealed and frozen at −80° C. for analysis.
In the case of `CCc1c(C)[nH]c2c(-c3cnn(-c4nccc(C)n4)c3)cnn2c1=O` [Example 1], the pIC50 was 7.58. On the same count and under the same terms, to `CCc1c(C)[nH]c2c(-n3cnc(-c4cccnc4)c3)cnn2c1=O` [Example 45, 6-ethyl-5-methyl-3-(4-(pyridin-3-yl)-1H-imidazol-1-yl)pyrazolo[1,5-a]pyrimidin-7(4H)-one] belongs 5.20.

Regarding `CCc1c(-c2ccccc2)[nH]c2c(-n3cnc(-c4ccccn4)c3)cnn2c1=O` [Example 47, 6-ethyl-5-phenyl-3-(4-(pyridin-2-yl)-1H-imidazol-1-yl)pyrazolo[1,5-a]pyrimidin-7(4H)-one], the pIC50 was 6.24. Regarding `CCc1c(C)[nH]c2c(-n3cnc(-c4ccccn4)c3)cnn2c1=O` [Example 48, 6-Ethyl-5-methyl-3-(4-(pyridin-2-yl)-1H-imidazol-1-yl)pyrazolo[1,5-a]pyrimidin-7(4H)-one], the pIC50 is 7.15. Take `CCc1[nH]c2c(-n3cnc(-c4ccccn4)c3)cnn2c(=O)c1CC` [Example 51, 5,6-Diethyl-3-(4-(pyridin-2-yl)-1H-imidazol-1-yl)pyrazolo[1,5-a]pyrimidin-7(4H)-one]: the pIC50 was 7.15. `Cc1c(-c2ccccc2)[nH]c2c(-n3cnc(-c4ccccn4)c3)cnn2c1=O` [Example 52, 6-Methyl-5-phenyl-3-(4-(pyridin-2-yl)-1H-imidazol-1-yl)pyrazolo[1,5-a]pyrimidin-7(4H)-one]: the pIC50 was 6.33. `CCc1c(C)[nH]c2c(-n3cnc(-c4cscn4)c3)cnn2c1=O` [Example 53, 6-Ethyl-5-methyl-3-(4-(thiazol-4-yl)-1H-imidazol-1-yl)pyrazolo[1,5-a]pyrimidin-7(4H)-one]: the pIC50 was 6.34. With `CCc1c(C)[nH]c2c(-n3cnc(-c4ncccn4)c3)cnn2c1=O` [Example 54, 6-ethyl-5-methyl-3-(4-(pyrimidin-2-yl)-1H-imidazol-1-yl)pyrazolo[1,5-a]pyrimidin-7(4H)-one], the pIC50 is 6.27. Still for that read-out and setting: with `CCc1c(C)[nH]c2c(-n3cnc(C(N)=O)c3)cnn2c1=O` [Example 55, 1-(6-Ethyl-5-methyl-7-oxo-4,7-dihydropyrazolo[1,5-a]pyrimidin-3-yl)-1H-imidazole-4-carboxamide] the figure was 7.02.

Another experiment concerns the target T1, KDM5A. In words: KDM5A Demethylase Assay (TR-FRET Assay-B). Type of experiment: biochemical. The settings on record: full length recombinant Flag tagged KDM5A, 2 nM, TrisCl pH 7.4, 3.0 μM α-ketoglutarate, read-out: B KDM5A HTRF (IC50).
Protocol: Full length recombinant Flag tagged KDM5A protein was purified from Sf9 insect cells. The demethylation reaction buffer contained 50 mM TrisCl pH 7.4, 0.01% Triton X-100, 0.025 mg/mL BSA, 1 mM ascorbate, 2 mM TCEP, 3.0 μM α-ketoglutarate, and 50 μM Fe2(NH4)2(SO4)2. […] After a one hour incubation assays were read on a Perkin-Elmer Envision equipped with a laser source and appropriate filters.
For `Cc1ccnc(-n2cc(-c3cnn4c(=O)c(C5CC5)c(C)[nH]c34)cn2)n1` [Example 30, 6-cyclopropyl-5-methyl-3-(1-(4-methylpyrimidin-2-yl)-1H-pyrazol-4-yl)pyrazolo[1,5-a]pyrimidin-7(6H)-one], the pIC50 is 8.32. Consider `Cc1cnc(-n2cc(-c3cnn4c(=O)c(C5CC5)c(C)[nH]c34)cn2)nc1` [Example 31, 6-cyclopropyl-5-methyl-3-(1-(5-methylpyrimidin-2-yl)-1H-pyrazol-4-yl)pyrazolo[1,5-a]pyrimidin-7(6H)-one], for which the pIC50 was 7.31.

Take `Cc1[nH]c2c(-c3cnn(-c4ccc(CO)cn4)c3)cnn2c(=O)c1C1CC1` [Example 32, 6-cyclopropyl-3-(1-(5-(hydroxymethyl)pyridin-2-yl)-1H-pyrazol-4-yl)-5-methylpyrazolo[1,5-a]pyrimidin-7(6H)-one]: the pIC50 was 8.10.

On to `CCc1c(C)[nH]c2c(-c3cnn(C(C)=O)c3)cnn2c1=O` [Example 33, 3-(1-acetyl-1H-pyrazol-4-yl)-6-ethyl-5-methylpyrazolo[1,5-a]pyrimidin-7(4H)-one], for which the pIC50 is 6.71. `CCc1c(C)[nH]c2c(-c3cnn(C(=O)N(C)C)c3)cnn2c1=O` [Example 34, 4-(6-ethyl-5-methyl-7-oxo-4,7-dihydropyrazolo[1,5-a]pyrimidin-3-yl)-N,N-dimethyl-1H-pyrazole-1-carboxamide]: the pIC50 was 5.38.

As to `CCc1c(C)[nH]c2c(-c3cnn(C(=O)C(C)(C)C)c3)cnn2c1=O` [Example 35, 6-ethyl-5-methyl-3-(1-pivaloyl-1H-pyrazol-4-yl)pyrazolo[1,5-a]pyrimidin-7(4H)-one], the pIC50 was 6.27. Consider `CCc1c(C)[nH]c2c(-c3cnn(C(=O)OC)c3)cnn2c1=O` [Example 36, Methyl 4-(6-ethyl-5-methyl-7-oxo-4,7-dihydropyrazolo[1,5-a]pyrimidin-3-yl)-1H-pyrazole-1-carboxylate], for which the pIC50 is 6.00. Turning to `CCc1[nH]c2c(-c3cnn(-c4ccccn4)c3)cnn2c(=O)c1C` [Example 37, 5-ethyl-6-methyl-3-(1-(pyridin-2-yl)-1H-pyrazol-4-yl)pyrazolo[1,5-a]pyrimidin-7(4H)-one], the pIC50 is 6.47.

Regarding `Cc1c(C(C)C)[nH]c2c(-c3cnn(-c4ccccn4)c3)cnn2c1=O` [Example 38, 5-isopropyl-6-methyl-3-(1-(pyridin-2-yl)-1H-pyrazol-4-yl)pyrazolo[1,5-a]pyrimidin-7(4H)-one], the pIC50 was 6.00. For the compound `Cc1c(C2CC2)[nH]c2c(-c3cnn(-c4ccccn4)c3)cnn2c1=O` [Example 39, 5-cyclopropyl-6-methyl-3-(1-(pyridin-2-yl)-1H-pyrazol-4-yl)pyrazolo[1,5-a]pyrimidin-7(4H)-one], the pIC50 was 6.20. Consider `COc1c(C)[nH]c2c(-c3cnn(-c4ccccn4)c3)cnn2c1=O` [Example 40, 6-methoxy-5-methyl-3-(1-(pyridin-2-yl)-1H-pyrazol-4-yl)pyrazolo[1,5-a]pyrimidin-7(4H)-one], for which the pIC50 was 7.00.

With `CCc1c(CO)[nH]c2c(-c3cnn(-c4ccccn4)c3)cnn2c1=O` [Example 41, 6-ethyl-5-(hydroxymethyl)-3-(1-(pyridin-2-yl)-1H-pyrazol-4-yl)pyrazolo[1,5-a]pyrimidin-7(4H)-one], the pIC50 was 8.39. On the same count and under the same terms, to `Cc1[nH]c2c(-c3cnn(-c4ccccn4)c3)cnn2c(=O)c1Cl` [Example 43, 6-chloro-5-methyl-3-[1-(2-pyridyl)pyrazol-4-yl]-4H-pyrazolo[1,5-a]pyrimidin-7-one] belongs 7.22; to `Cc1cc(=O)n2ncc(-n3cnc(-c4ccccn4)c3)c2[nH]1` [Example 49, 5-Methyl-3-(4-(pyridin-2-yl)-1H-imidazol-1-yl)pyrazolo[1,5-a]pyrimidin-7(4H)-one], 7.36. Consider `Cc1[nH]c2c(-c3cnn(-c4ccccn4)c3)cnn2c(=O)c1C` [Example 61, 5,6-dimethyl-3-[1-(2-pyridyl)pyrazol-4-yl]-4H-pyrazolo[1,5-a]pyrimidin-7-one], for which the pIC50 is 7.18. Still for that read-out and setting: to `Cc1[nH]c2c(-c3cnn(-c4ccccn4)c3)cnn2c(=O)c1F` [Example 62, 6-fluoro-5-methyl-3-[1-(2-pyridyl)pyrazol-4-yl]-4H-pyrazolo[1,5-a]pyrimidin-7-one] belongs 6.67. Take `CCc1[nH]c2c(-c3cnn(-c4ccccn4)c3)cnn2c(=O)c1CC` [Example 63, 5,6-diethyl-3-[1-(2-pyridyl)pyrazol-4-yl]-4H-pyrazolo[1,5-a]pyrimidin-7-one]: the pIC50 is 6.77. On to `Cc1[nH]c2c(-c3cnn(-c4ccccn4)c3)cnn2c(=O)c1C#N` [Example 64, 5-methyl-7-oxo-3-[1-(2-pyridyl)pyrazol-4-yl]-4H-pyrazolo[1,5-a]pyrimidine-6-carbonitrile], for which the pIC50 is 6.08. Regarding `CCc1c(C)[nH]c2c(-c3cnn(-c4ccc(C)cn4)c3)cnn2c1=O` [Example 65, 6-ethyl-5-methyl-3-[1-(5-methyl-2-pyridyl)pyrazol-4-yl]-4H-pyrazolo[1,5-a]pyrimidin-7-one], the pIC50 was 8.29.
